Data set [1] can be described thus: Two-component system (kit of parts): impregnation of TPU films, visual colouring and resistance to rubbing/washing (Beispiel 6a/6b). In kind it is physicochemical. As to conditions: TPU Folien; 2K-System Beispiel 6a (Aceton/Isopropanol). From the text:
Um eine Mehrkomponenten-System bereitzustellen, bei dem vorzugsweise flüchtigere Hilfskomponenten, die gegebenenfalls regelmäßiger im Prozess ergänzt werden müssen, in einer separaten Komponente bereitgestellt werden können, wurde zunächst folgendes 2K-System getestet.
Grundkomponente (A): Eine Mischung aus 40,0% w/w Aceton, 30,0% w/w Isopropanol und […] w/w Wasser wurden homogen vermengt. Die Mischung war dicht verschlossen > 12 Monate bei Raumtemperatur lagerbar.
Zusatzkomponente (B): Eine Mischung aus 3,0% w/w Phenoxyethanol, 3,0% w/w EDTA und 0,1 bis 2,0 % Photokatalysator in Wasser wurden homogen verrührt. Die Mischung war dicht verschlossen in dunklen Flaschen > 6 Monate bei Raumtemperatur lagerbar.
Beide Lösungen wurden vor dem Prozess zu gleichen Teilen gemischt, gefolgt von einer 1:5 Verdünnung mit Wasser. Nach guter Durchmischung war die Lösung gebrauchsfertig.
Bei F-64a und F-73 war eine schwache Gelb- bzw.
Grundkomponente (A) enthielt eine Mischung aus 30,0% w/w Dimethylsuccinat, 33,0% w/w 1,2-Propandiol, 12,0% w/w Tween 20 und 25,0 % Wasser.
Zusatzkomponente (B) enthielt eine Mischung aus 2,0 Gew.-% Phenoxyethanol, 2,0 Gew.-% EDTA und 0,1 Gew.-% bis 1,6 Gew.-% Photokatalysator, jeweils bezogen auf das Gesamtgewicht der Zusatzkomponente (B), wobei die entsprechenden Bestandteile in Wasser gelöst wurden und anschließend homogen verrührt wurden.
Die Komponenten wurden vor Gebrauch im Verhältnis A zu B 2:1 gemischt, gefolgt von einer 1:1 Verdünnung mit Wasser. Nach guter Durchmischung war die Lösung gebrauchsfertig.

Data set [2] can be described thus: Leaching stress test B following DIN EN 16105, nine immersion cycles (Beispiel 10 B). In kind it is physicochemical. Conditions: Immersion test B (DIN EN 16105), medium Wasser, plastic TPU, Rezeptur 1 nach Beispiel 1. As to the method: Der Test wurde in Anlehnung an die DIN EN 16105:2011-12 ("[…] zur Bestimmung der Freisetzung von Substanzen aus Beschichtungen in intermittierendem […] unter A) beschrieben erzeugt. Es wurde vollentsalztes Wasser mit einem pH-Wert von (6 ± 1) und einer Wassertemperatur von (22 ± 3) °C verwendet. Beim Test wurden jeweils neun Tauchzyklen durchgeführt. […] Die erforderliche Wassermenge (z. B. 250 mL pro 100 cm2) musste hinzugefügt werden. Für jedes Eintauchen wurde frisches deionisiertes Wasser verwendet. Jeder Probekörper wurde in […]. Die […] so […] von Wasser mit der untersuchten Oberfläche möglich war. Der Tauchbehälter wurde dabei abgedeckt, um ein Verdunsten von Wasser während des Eintauchens zu […]. Der Überschuss wird direkt im UV-VIS-Spektrometer vermessen, vor dem ersten Immersionszyklus und nach Zyklen 1, 3, 5, 7 und 9. Die Ausgangswerte (Absorptionsmaximum des jeweiligen […] dabei zwischen 0,05 A.U. und 1,00 A.U. liegen. Die […] Immersionstest B

For the next data set, the system named is S.aureus ATCC 6538. Kind of data set: Antibacterial activity of impregnated films, modified ISO 22196 with illumination (Beispiele 11-16, 25). In kind it is cell-based. The text has this:
(§1) Die Bestimmung der antimikrobiellen Aktivität erfolgte nach einer modifizierten Version der ISO 22196:2011-08 ("Messung von antibakterieller Aktivität auf Kunststoff- und anderen porenfreien Oberflächen", Ausgabedatum: 2011-08).
(§2) Bei der Testdurchführung wurde ein dünner Flüssigkeitsfilm, in dem die Bakterien enthalten sind (1,25 x 10^4 /cm^2), direkt auf die Probenkörper (3 x 3 cm) aufgebracht. Direkt nach Beimpfung wurden von der Nullprobe die Bakterien von den Probenkörperoberflächen mittels Ultraschall und Vortexen abgelöst und die Keimzahl (KBE (engl. CFU), Kolonie-bildende Einheit) bestimmt (t0-Wert).
(§3) Nach 4h wurden überlebende Bakterien von den Probenkörperoberflächen mittels Ultraschall und Vortexen abgelöst und die Keimzahl bestimmt (t4-Wert).
(§4) Im Unterschied zu der in der ISO 22196:2011-08 beschreibenen Methode wurde das Inokulum nicht mit einer Folie abgedeckt und die Inkubationszeit wurde von 24 auf 4 Stunden reduziert. Weiterhin wurden die Probenkörper der Proben 3 und 4 mit Licht der Intensität 20mW/cm2 für 10min belichtet, um eine biozide Wirkung nach Bestrahlung mit elektromagnetischer Strahlung zu bestimmen.
Verwendet wurden TPU Folienstücke, die nach dem in Beispiel 4 beschriebenen Verfahren mit Rezeptur 1 behandelt wurden. Rezeptur 1 wurde hergestellt nach Beispiel 2. […] Der Test wurde in Anlehnung an ISO 22196 nach oben beschriebener Methode durchgeführt.
TPU-Folienstücke wurden ebenfalls nach dem in Beispiel 4 beschriebenen Verfahren mit verschiedenen Rezepturen behandelt, die gemäß Beispiel 2 hergestellt wurden. Die Farbstoffkonzentration in der Imprägnierlösung betrug jeweils 1 mM F-24b. Der Test wurde in Anlehnung an ISO 22196 nach oben beschriebener Methode durchgeführt.
Die Farbstoffkonzentration in der Imprägnierlösung betrug jeweils 1 mM.
Die Photokatalysator-Konzentration von F-24b wurde variiert.
Es wurde ein Bakterientest in Anlehnung an ISO 22196 nach oben beschriebener Methode durchgeführt.

For data set [3], the system named is S. aureus. Put plainly: Bactericidal effect after tempering (Beispiel 19), modified ISO 22196. In kind it is cell-based. Conditions: TPU film, Rezeptur 1, 1 mM.
Text: as §1, §2, §3, §4
Weiterhin wurde die Belastbarkeit des Photokatalysators in der Folie mit zusätzlichen Tests wie Tempern bei 80°C und Dampfsterilisation bei 121°C untersucht. […]

Data set [4] has as its system S. aureus. Kind of data set: Bactericidal effect after steam sterilisation (Beispiel 20), modified ISO 22196. In kind it is cell-based. Conditions: TPU Folie, Rezeptur 1, 1 mM F-24b; after Dampfsterilisation 121°C, 2 h.
Text: as §1, §2, §3, §4
Weiterhin wurde die Belastbarkeit des Photokatalysators in der Folie mit zusätzlichen Tests wie Tempern bei 80°C und Dampfsterilisation bei 121°C untersucht.

The nature of data set [5]: Comparative examples 23-25: impregnation of unsuitable plastics or with a fluorescent dye, visual evaluation. In kind it is physicochemical. As to conditions: 0,2 mm starke Polycarbonatfolien; 60 min Einwirkzeit. As to the method: Die Farbstoffkonzentration in der Imprägnierlösung betrug jeweils 1 mM bei Phenalen-1-on- und Curcuminderivaten, 0,1 mM bei Prophycenderivaten.
Es wurden 0,2 mm starke Polycarbonatfolien eingesetzt und mit Imprägnierlösungen enthaltend die Photokatalysatoren F-24b, F-64a oder F-73 behandelt.
Es wurden TPU Folien eingesetzt und mit einer Imprägnierlösung enthaltend den Farbstoff 2-Chloro-6-(3-hydroxypropylamino)-1-phenalenon (CAS 113722-81-9) behandelt.

In the case of `CC(C)(O)c1cc[n+](CC2=Cc3cccc4cccc(c34)C2=O)cc1` [F-24b], the “Imprägnierung / Färbung der Folie” value in data set [1] was “mit den vorherigen Daten vergleichbar”. The “Abs. nach Auswaschen” value in data set [2] is 0,006. The “Berechneter Verlust in %” value in data set [2] is 4,9%. The “Log10 Reduktion Hauptprobe” value is 4,0 ± 0,3 log10 in the data set on S.aureus ATCC 6538 (Beispiel 13, TPU film, Rezeptur 1 nach Beispiel 2, 1 mM in impregnation solution, light 20mW/cm2 10min); 1,8 ± 1,3 log10 with S.aureus ATCC 6538 (Beispiel 13, TPU film, Rezeptur 2 nach Beispiel 2, 1 mM in impregnation solution, light 20mW/cm2 10min); 4,2 ± 0,8 log10 in the data set with S.aureus ATCC 6538 (Beispiel 13, TPU film, Rezeptur 3 nach Beispiel 2, 1 mM in impregnation solution, light 20mW/cm2 10min); 3,5 ± 0,5 log10 in the data set on S.aureus ATCC 6538 (Beispiel 13, TPU film, Rezeptur 8 nach Beispiel 3, 1 mM in impregnation solution, light 20mW/cm2 10min); 2,5 ± 1,4 log10 with S.aureus ATCC 6538 (Beispiel 15, TPU film, Rezeptur 1, photocatalyst concentration 0,5 mM); 2,8 ± 1,3 log10 with S.aureus ATCC 6538 (Beispiel 15, TPU film, Rezeptur 1, photocatalyst concentration 0,25 mM). Also, the “Log10 Reduktion Hauptprobe” value in the data set with S.aureus ATCC 6538 (Beispiel 15, TPU film, Rezeptur 1, photocatalyst concentration 1 mM) is 3,5 ± 0,5 log10; with S.aureus ATCC 6538 (Beispiel 16, film material CPI (Polyimid), Rezeptur 1, 1 mM), 3,0 ± 0,1 log10; with S.aureus ATCC 6538 (Beispiel 16, film material Nitril, Rezeptur 1, 1 mM) it was 3,8 ± 0,3 log10; with S.aureus ATCC 6538 (Beispiel 16, film material PET-G, Rezeptur 1, 1 mM), 4,0 ± 0,1 log10; with S.aureus ATCC 6538 (Beispiel 16, film material PVC, Rezeptur 1, 1 mM), 3,9 ± 0,8 log10; in the data set with S.aureus ATCC 6538 (Beispiel 16, film material Silikon, Rezeptur 1, 1 mM) it was 3,4 ± 0,1 log10. The “Log10 Reduktion Hauptprobe” value in the data set with S.aureus ATCC 6538 (Beispiel 16, film material Surlyn, Rezeptur 1, 1 mM) is on record as 3,6 ± 0,5 log10; in the data set on S.aureus ATCC 6538 (Beispiel 16, film material TPU, Rezeptur 1, 1 mM), 4,0 ± 0,3 log10; in the data set with S.aureus ATCC 6538 (TPU Folie, Rezeptur 1, 1 mM F-24b, Licht 20mW/cm2 für 10min, Gram-positiv), 4,0 ± 0,3 log10; in the data set on S. aureus [3] (After 1 Woche 80°C Tempern) it was 3,0 ± 1,1 log10; with S. aureus [3] (After 1 h 80 °C Tempern), 4,1 ± 0,1 log10; with S. aureus [4], 1,5 ± 0,3 log10. In addition, in data set [5], the Verfärbung entry was “keine Verfärbung”.

The values are drawn from patent EP4458804A1, “METHOD FOR PRODUCING AN OBJECT, PHENALEN-1-ONE COMPOUND AND USE THEREOF” (TriOptoTec GmbH, priority 2023, dated 2024).
